The nature of this data set: Open-circulating cooling water system, change over time in combined and free chlorine (Example 4 / Comparative Example 1). Format: physicochemical. Particulars: for Combined chlorine: total residual chlorine minus free chlorine (DPD). The source says: In this open-circulating cooling water system, cooling water is supplied from a cooling tower 1 to a heat exchanger 3 via a cooling water pipe 2 and a pump P, and is returned to the cooling tower 1 via a cooling water pipe 4. The cooling tower 1 (refrigeration capacity: 400 RT, water storage capacity: 30 m^3) was operated at a concentration factor of 5. The cooling tower 1 has a fan F and contains therein air-conditioning cooling water W. The free chlorine concentration of the air-conditioning cooling water W is measured by means of a sensor S and controlled by means of a free chlorine control section 5 and a combined chlorine control section 6. The free chlorine control section 5 includes a chemical tank 51 and a chemical feed inlet 52. Combined chlorine control section 6 includes a chemical tank 61 and a chemical feed inlet 62. The amount of free chlorine or combined chlorine is controlled on the basis of the free chlorine concentration as measured by means of the sensor S employing an ORP electrode.
The amount of free chlorine was controlled through addition of a hypochlorite salt. Chlorosulfamic acid was employed as combined chlorine.
In the water system, chlorosulfamic acid was added so that the chlorine concentration was adjusted to 15 mg-Cl/L with respect to blowing down the cooling water. In the water system, the amount of the hypochlorite salt added was controlled by means of the sensor S so that free chlorine concentration was 0.5 mg-Cl/L. Combined chlorine concentration was measured through the DPD method (determined by use of the following relation: combined chlorine concentration=total residual chlorine concentration−free chlorine concentration).
Flaked slime was non-forcedly discharged through blowing down at an intensity according to the concentration factor, and a forced removal of the slime (e.g., cleaning) was not carried out. Thus, the water system was continuously operated, and change over time in combined chlorine concentration and free chlorine concentration in the water system was observed.
The water system was continuously operated under the same conditions as in Example 4 (i.e., chlorosulfamic acid was added so that the chlorine concentration was adjusted to 15 mg-Cl/L with respect to blowing down the cooling water), except that free chlorine concentration was not controlled.

In the case of `O=S(=O)(O)NCl` [Comparative Example 1, Chlorosulfamic acid], the “Combined chlorine concentration, level over the operation period” value (operation period up to 20 days) is “maintained at low level”. The Free chlorine reads like this: (period 1 days) 0.0 mg/L; (period 2 days) 0.0 mg/L; (period 8 days) 0.1 mg/L; (period 14 days) 0.0 mg/L; (period 20 days) 0.1 mg/L. In addition, the Combined chlorine is, setting by setting: (period 1 days) 3 mg/L; (period 2 days) 4 mg/L; (period 8 days) 3 mg/L; (period 14 days) 2 mg/L; (period 20 days) 4 mg/L.
